Laboratory results taken from ChEMBL document CHEMBL1159270, “Bruceosides D, E, and F, three new cytotoxic quassinoid glucosides from Brucea javanica” (1995).

Experiments:
Format in all cases: functional
RXF 393 = assay: Growth inhibition of human RXF393 cells
A549 = assay: Growth inhibition of human A549 cells
SF-268 = assay: Growth inhibition of human SF268 cells
OVCAR-8 = assay: Growth inhibition of human OVCAR8 cells
SK-MEL-5 = assay: Growth inhibition of human SK-MEL-5 cells
M14 = assay: Growth inhibition of human M14 cells
PC-3 = assay: Growth inhibition of human PC3 cells
IGROV-1 = assay: Growth inhibition of human IGROV1 cells
MOLT-4 = assay: Growth inhibition of human MOLT4 cells
SNB-75 = assay: Growth inhibition of human SNB75 cells
ACHN = assay: Growth inhibition of human ACHN cells
A498 = assay: Growth inhibition of human A498 cells
UACC-257 = assay: Growth inhibition of human UACC257 cells
NCI-H322M = assay: Growth inhibition of human NCI-H322M cells
HT-29 = assay: Growth inhibition of human HT-29 cells
SW-620 = assay: Growth inhibition of human SW620 cells
U-251 = assay: Growth inhibition of human U251 cells
HOP-62 = assay: Growth inhibition of human HOP62 cells
Malme-3M = assay: Growth inhibition of human MALME-3M cells
NCI-H522 = assay: Growth inhibition of human NCI-H522 cells
UACC-62 = assay: Growth inhibition of human UACC62 cells
HL-60(TB) = assay: Growth inhibition of human HL-60(TB) cells
BT-549 = assay: Growth inhibition of human BT549 cells
KM12 = assay: Growth inhibition of human KM12 cells
MDA-N = assay: Growth inhibition of human MDA-N cells
SK-MEL-28 = assay: Growth inhibition of human SK-MEL-28 cells
DU-145 = assay: Growth inhibition of human DU145 cells
SK-MEL-2 = assay: Growth inhibition of human SK-MEL-2 cells
HOP-92 = assay: Growth inhibition of human HOP92 cells
TK-10 = assay: Growth inhibition of human TK10 cells
K562 = assay: Growth inhibition of human K562 cells
SNB-19 = assay: Growth inhibition of human SNB19 cells
EKVX = assay: Growth inhibition of human EKVX cells
LOX IMVI = assay: Growth inhibition of human LOXIMVI cells
T47D = assay: Growth inhibition of human T47D cells
OVCAR-3 = assay: Growth inhibition of human OVCAR-3 cells
CCRF-CEM = assay: Growth inhibition of human CCRF-CEM cells
SN12C = assay: Growth inhibition of human SN12C cells
NCI-H460 = assay: Growth inhibition of human NCI-H460 cells
CAKI-1 = assay: Growth inhibition of human Caki1 cells
786-0 = assay: Growth inhibition of human 786-0 cells
NCI-H226 = assay: Growth inhibition of human NCI-H226 cells
SK-OV-3 = assay: Growth inhibition of human SKOV3 cells
MCF7 = assay: Growth inhibition of human MCF7 cells
COLO 205 = assay: Growth inhibition of human COLO205 cells
[1] = Growth inhibition of human MCF7/ADR cells; details: NCI/ADR-RES
HCC 2998 = assay: Growth inhibition of human HCC2998 cells
OVCAR-4 = assay: Growth inhibition of human OVCAR4 cells
[2] = Growth inhibition of human Hs 578T cells
HCT-116 = assay: Growth inhibition of human HCT116 cells
MDA-MB-435 = assay: Growth inhibition of human MDA-MB-435 cells
SR = assay: Growth inhibition of human SR cells
HCT-15 = assay: Growth inhibition of human HCT15 cells
OVCAR-5 = assay: Growth inhibition of human OVCAR5 cells
SF-539 = assay: Growth inhibition of human SF539 cells
MDA-MB-231 = assay: Growth inhibition of human MDA-MB-231 cells
UO-31 = assay: Growth inhibition of human UO31 cells
NCI-H23 = assay: Growth inhibition of human NCI-H23 cells

SMILES: CC(=O)OC(C)(C)/C(C)=C/C(=O)O[C@H]1C(=O)O[C@@H]2C[C@H]3[C@H](C)C(=O)C(O[C@@H]4O[C@H](CO)[C@@H](O)[C@H](O)[C@H]4O)=C[C@]3(C)[C@H]3[C@@H](O)[C@H](O)[C@]4(C(=O)O)OC[C@]32[C@@H]14 [BRUCEOSIDE F]
- GI50 (RXF 393): 37.2 µM
- GI50 (A549): > 100 µM
- GI50 (SF-268): > 100 µM
- GI50 (OVCAR-8): > 100 µM
- GI50 (SK-MEL-5): > 100 µM
- GI50 (M14): > 100 µM
- GI50 (PC-3): > 100 µM
- GI50 (IGROV-1): > 100 µM
- GI50 (MOLT-4): 33.9 µM
- GI50 (SNB-75): > 100 µM
- GI50 (ACHN): > 100 µM
- GI50 (A498): > 100 µM
- GI50 (UACC-257): > 100 µM
- GI50 (NCI-H322M): > 100 µM
- GI50 (HT-29): > 100 µM
- GI50 (SW-620): > 100 µM
- GI50 (U-251): > 100 µM
- GI50 (HOP-62): 69.2 µM
- GI50 (Malme-3M): 56.2 µM
- GI50 (NCI-H522): 18.6 µM
- GI50 (UACC-62): > 100 µM
- GI50 (HL-60(TB)): 47.9 µM
- GI50 (BT-549): > 100 µM
- GI50 (KM12): > 100 µM
- GI50 (MDA-N): > 100 µM
- GI50 (SK-MEL-28): > 100 µM
- GI50 (DU-145): > 100 µM
- GI50 (SK-MEL-2): > 100 µM
- GI50 (HOP-92): 66.1 µM
- GI50 (TK-10): > 100 µM
- GI50 (K562): 39.8 µM
- GI50 (SNB-19): > 100 µM
- GI50 (EKVX): > 100 µM
- GI50 (LOX IMVI): > 100 µM
- GI50 (T47D): > 100 µM
- GI50 (OVCAR-3): 25.7 µM
- GI50 (CCRF-CEM): 43.7 µM
- GI50 (SN12C): > 100 µM
- GI50 (NCI-H460): 39.8 µM
- GI50 (CAKI-1): > 100 µM
- GI50 (786-0): > 100 µM
- GI50 (NCI-H226): 72.4 µM
- GI50 (SK-OV-3): > 100 µM
- GI50 (MCF7): 27.5 µM
- GI50 (COLO 205): > 100 µM
- GI50 [1]: > 100 µM
- GI50 (HCC 2998): 36.3 µM
- GI50 (OVCAR-4): > 100 µM
- GI50 [2]: > 100 µM
- GI50 (HCT-116): 38 µM
- GI50 (MDA-MB-435): > 100 µM
- GI50 (SR): 49 µM
- GI50 (HCT-15): > 100 µM
- GI50 (OVCAR-5): > 100 µM
- GI50 (SF-539): 56.2 µM
- GI50 (MDA-MB-231): > 100 µM
- GI50 (UO-31): > 100 µM
- GI50 (NCI-H23): > 100 µM
